# Data taken from ChEMBL document CHEMBL5465560, “Selectivity Literature for EUbOPEN Chemogenomic Library” (2024).
# Experiments:
# [1] = molecular target: T1, Dual specificity mitogen-activated protein kinase kinase 3 (Homo sapiens) (UniProt P46734); test: Selectivity interaction (KinomeScan (DiscoverX)) EUB0001079a MAP2K3; conditions: at 1 µM
# T1 sequence (whole entry): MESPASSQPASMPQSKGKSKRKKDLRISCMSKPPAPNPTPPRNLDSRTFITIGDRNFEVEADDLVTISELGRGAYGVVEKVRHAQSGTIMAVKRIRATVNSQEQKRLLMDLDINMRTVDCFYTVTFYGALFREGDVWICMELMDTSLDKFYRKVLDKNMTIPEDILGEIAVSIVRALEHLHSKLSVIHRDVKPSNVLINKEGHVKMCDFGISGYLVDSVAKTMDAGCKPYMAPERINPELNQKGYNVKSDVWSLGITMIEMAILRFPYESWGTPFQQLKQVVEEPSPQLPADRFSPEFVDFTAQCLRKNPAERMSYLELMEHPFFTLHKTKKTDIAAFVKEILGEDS
# [2] = molecular target: Neuropeptide Y receptor type 1 (Homo sapiens, UniProt P25929); test: Selectivity interaction (Neuropeptide Y Y1 receptor binding assay, human recombinant ) EUB0000877a NPY1R
# [3] = molecular target: Cyclin-dependent kinase 8 (Homo sapiens, UniProt P49336); conditions: at 10 µM
# [4] = molecular target: T2, Kinase suppressor of Ras 2 (Homo sapiens) (UniProt Q6VAB6); test: Selectivity interaction (ActivX KiNativ screen (kinase selectivity in THP-1 cell lysates)) EUB0000639a KSR2; format: subcellular; conditions: lysate
# T2 sequence (whole entry): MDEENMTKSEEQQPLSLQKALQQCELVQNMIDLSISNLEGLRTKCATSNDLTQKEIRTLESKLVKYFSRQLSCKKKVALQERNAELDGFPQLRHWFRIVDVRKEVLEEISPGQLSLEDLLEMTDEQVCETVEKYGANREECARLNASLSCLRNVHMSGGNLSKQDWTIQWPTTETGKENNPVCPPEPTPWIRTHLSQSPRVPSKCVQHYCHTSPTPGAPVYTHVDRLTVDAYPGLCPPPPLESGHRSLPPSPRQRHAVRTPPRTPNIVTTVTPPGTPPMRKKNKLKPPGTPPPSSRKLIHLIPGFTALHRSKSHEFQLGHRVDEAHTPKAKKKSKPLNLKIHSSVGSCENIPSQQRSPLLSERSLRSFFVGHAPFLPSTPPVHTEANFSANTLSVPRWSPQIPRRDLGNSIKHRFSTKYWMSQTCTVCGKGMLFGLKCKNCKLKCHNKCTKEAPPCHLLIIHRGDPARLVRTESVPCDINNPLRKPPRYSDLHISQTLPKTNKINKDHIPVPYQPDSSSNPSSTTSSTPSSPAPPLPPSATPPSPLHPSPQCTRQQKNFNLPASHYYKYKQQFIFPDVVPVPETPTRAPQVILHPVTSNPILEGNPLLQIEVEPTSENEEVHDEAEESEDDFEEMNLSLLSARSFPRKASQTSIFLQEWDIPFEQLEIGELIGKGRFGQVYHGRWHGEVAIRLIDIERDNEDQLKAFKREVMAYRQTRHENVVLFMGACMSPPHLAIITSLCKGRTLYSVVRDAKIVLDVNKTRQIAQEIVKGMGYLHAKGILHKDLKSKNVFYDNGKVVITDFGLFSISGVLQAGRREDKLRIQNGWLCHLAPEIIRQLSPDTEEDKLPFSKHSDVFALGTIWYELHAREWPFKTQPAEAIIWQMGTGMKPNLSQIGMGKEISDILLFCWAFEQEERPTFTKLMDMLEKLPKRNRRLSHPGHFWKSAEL
# [5] = molecular target: Cyclin-dependent kinase 5 (Homo sapiens, UniProt Q00535); test: Selectivity interaction (KinomeScan (DiscoverX)) EUB0000595a CDK5; conditions: at 10 µM
# [6] = molecular target: Phosphatidylinositol 4,5-bisphosphate 3-kinase catalytic subunit alpha isoform (Homo sapiens) (UniProt P42336); conditions: at 10 µM
# [7] = molecular target: Serine/threonine-protein kinase 33 (Homo sapiens) (UniProt Q9BYT3); test: Selectivity interaction (Ambit KINOMEscan and KiNATiv profiling in Jurkat cells) EUB0000090b STK33; format: cell-based; conditions: at 1 µM
# [8] = molecular target: Calcium/calmodulin-dependent protein kinase type II subunit gamma (Homo sapiens) (UniProt Q13555); test: Selectivity interaction (KinomeScan (DiscoverX)) EUB0000618a CAMK2G; conditions: at 10 µM
# [9] = molecular target: T3, Interleukin-1 receptor-associated kinase 4 (Homo sapiens) (UniProt Q9NWZ3); conditions: at 10 µM
# T3 sequence (whole entry): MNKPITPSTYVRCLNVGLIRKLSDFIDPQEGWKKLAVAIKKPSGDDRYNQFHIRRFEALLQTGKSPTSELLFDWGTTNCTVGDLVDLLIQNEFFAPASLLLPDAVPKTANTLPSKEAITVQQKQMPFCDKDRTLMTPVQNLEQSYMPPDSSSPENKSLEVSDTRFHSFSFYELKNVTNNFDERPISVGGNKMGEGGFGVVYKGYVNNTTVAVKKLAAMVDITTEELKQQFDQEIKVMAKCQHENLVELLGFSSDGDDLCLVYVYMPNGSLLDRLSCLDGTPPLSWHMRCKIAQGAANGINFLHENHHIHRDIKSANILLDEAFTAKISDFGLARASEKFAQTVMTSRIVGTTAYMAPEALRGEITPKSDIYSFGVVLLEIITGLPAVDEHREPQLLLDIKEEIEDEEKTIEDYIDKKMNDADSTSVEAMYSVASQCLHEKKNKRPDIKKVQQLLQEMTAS
# [10] = molecular target: Serine/threonine-protein kinase 24 (Homo sapiens) (UniProt Q9Y6E0); test: Selectivity interaction (ActivX KiNativ screen (ex vivo kinase selectivity in human PBMCs)) EUB0001619a STK24; format: cell-based; conditions: PBMC, at 1 µM
# [11] = molecular target: Serine/threonine-protein kinase 38-like (Homo sapiens) (UniProt Q9Y2H1); test: Selectivity interaction (ActivX KiNativ screen (ex vivo kinase selectivity in human PBMCs)) EUB0001619a STK38L; format: cell-based; conditions: PBMC, at 1 µM
# [12] = molecular target: Serine/threonine-protein kinase 33 (Homo sapiens) (UniProt Q9BYT3); test: Selectivity interaction (KinomeScan (DiscoverX)) EUB0000695a STK33; conditions: at 100 nM
# Sequence of Serine/threonine-protein kinase 33 (Homo sapiens) (Q9BYT3 whole entry, looked up): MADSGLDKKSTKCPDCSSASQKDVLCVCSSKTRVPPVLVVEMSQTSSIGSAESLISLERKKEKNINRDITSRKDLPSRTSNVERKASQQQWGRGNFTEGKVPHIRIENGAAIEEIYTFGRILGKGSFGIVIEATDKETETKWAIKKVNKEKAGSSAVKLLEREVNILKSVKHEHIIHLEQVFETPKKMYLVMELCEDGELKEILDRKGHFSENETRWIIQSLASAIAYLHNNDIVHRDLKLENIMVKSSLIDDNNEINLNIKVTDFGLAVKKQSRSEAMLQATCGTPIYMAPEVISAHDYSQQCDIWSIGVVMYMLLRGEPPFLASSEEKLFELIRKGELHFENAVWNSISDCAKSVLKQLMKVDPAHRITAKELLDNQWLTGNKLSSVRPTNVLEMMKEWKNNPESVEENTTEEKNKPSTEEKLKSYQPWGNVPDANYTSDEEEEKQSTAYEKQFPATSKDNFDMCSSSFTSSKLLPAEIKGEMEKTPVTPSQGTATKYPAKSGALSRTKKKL
# Sequence of Cyclin-dependent kinase 8 (P49336 whole entry): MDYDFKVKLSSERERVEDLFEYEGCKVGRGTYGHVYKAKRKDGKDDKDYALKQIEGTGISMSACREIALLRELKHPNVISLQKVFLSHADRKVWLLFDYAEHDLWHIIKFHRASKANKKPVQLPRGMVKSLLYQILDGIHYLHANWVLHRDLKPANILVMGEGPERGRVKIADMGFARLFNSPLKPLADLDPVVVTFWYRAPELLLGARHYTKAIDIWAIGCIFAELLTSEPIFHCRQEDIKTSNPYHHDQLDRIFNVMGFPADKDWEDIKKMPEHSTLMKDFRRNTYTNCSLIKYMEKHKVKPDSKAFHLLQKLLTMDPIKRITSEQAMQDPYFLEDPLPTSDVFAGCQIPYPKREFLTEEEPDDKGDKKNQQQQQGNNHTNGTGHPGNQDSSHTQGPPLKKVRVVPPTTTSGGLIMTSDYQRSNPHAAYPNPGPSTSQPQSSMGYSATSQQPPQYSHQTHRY
# Sequence of Serine/threonine-protein kinase 24 (Homo sapiens) (Q9Y6E0 whole entry, looked up): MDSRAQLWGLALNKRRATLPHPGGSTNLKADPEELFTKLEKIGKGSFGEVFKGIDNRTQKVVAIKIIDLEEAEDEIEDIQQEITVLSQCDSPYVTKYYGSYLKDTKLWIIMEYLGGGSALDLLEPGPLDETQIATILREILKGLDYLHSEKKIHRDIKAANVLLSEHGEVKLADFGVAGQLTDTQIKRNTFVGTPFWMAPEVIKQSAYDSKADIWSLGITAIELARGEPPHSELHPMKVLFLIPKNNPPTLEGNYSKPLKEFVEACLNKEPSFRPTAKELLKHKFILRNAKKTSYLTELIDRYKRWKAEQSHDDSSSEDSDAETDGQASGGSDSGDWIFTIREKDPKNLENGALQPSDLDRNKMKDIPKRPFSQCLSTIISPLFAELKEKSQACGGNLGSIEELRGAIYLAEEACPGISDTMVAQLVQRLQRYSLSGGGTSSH
# Sequence of Phosphatidylinositol 4,5-bisphosphate 3-kinase catalytic subunit alpha isoform (Homo sapiens) (P42336 whole entry, canonical isoform): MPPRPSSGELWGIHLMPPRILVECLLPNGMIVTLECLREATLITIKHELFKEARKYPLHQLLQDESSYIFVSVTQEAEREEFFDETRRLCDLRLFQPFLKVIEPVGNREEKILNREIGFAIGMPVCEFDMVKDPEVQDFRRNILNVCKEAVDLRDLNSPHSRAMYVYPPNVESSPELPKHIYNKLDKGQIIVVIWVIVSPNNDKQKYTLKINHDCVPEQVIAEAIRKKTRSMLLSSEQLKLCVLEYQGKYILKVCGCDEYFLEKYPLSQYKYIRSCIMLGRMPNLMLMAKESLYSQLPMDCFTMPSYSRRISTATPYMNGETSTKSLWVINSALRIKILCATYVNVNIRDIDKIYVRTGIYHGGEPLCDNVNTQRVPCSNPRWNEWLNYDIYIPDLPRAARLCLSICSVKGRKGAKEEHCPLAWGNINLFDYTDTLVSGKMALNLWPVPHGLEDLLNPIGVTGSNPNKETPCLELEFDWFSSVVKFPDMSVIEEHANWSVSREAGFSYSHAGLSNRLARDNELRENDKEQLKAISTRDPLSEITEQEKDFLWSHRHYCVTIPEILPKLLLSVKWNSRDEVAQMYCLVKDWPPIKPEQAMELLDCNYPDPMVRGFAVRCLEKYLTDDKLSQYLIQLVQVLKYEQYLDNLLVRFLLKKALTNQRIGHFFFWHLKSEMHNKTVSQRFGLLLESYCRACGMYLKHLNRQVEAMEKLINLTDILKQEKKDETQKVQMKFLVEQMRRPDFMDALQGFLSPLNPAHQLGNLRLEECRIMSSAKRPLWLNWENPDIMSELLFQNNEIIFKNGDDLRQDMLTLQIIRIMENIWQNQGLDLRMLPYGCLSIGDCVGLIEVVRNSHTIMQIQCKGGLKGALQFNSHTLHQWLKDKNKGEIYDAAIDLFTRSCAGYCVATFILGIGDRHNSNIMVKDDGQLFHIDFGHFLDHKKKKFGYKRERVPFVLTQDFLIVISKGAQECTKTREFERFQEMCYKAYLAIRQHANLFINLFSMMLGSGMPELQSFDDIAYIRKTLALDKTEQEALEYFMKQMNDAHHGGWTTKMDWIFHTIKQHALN
# Sequence of Neuropeptide Y receptor type 1 (P25929 whole entry): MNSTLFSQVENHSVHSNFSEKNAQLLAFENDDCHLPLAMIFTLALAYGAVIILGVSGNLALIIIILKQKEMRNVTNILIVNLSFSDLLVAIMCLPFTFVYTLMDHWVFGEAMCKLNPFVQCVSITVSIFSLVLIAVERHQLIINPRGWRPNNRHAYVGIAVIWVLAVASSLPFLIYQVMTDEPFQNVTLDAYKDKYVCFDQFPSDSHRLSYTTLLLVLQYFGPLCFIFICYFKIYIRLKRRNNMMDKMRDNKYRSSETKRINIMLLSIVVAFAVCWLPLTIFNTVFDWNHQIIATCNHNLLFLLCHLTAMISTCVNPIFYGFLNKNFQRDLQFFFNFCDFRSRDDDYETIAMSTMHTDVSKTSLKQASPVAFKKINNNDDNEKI
# Sequence of Calcium/calmodulin-dependent protein kinase type II subunit gamma (Homo sapiens) (Q13555 whole entry): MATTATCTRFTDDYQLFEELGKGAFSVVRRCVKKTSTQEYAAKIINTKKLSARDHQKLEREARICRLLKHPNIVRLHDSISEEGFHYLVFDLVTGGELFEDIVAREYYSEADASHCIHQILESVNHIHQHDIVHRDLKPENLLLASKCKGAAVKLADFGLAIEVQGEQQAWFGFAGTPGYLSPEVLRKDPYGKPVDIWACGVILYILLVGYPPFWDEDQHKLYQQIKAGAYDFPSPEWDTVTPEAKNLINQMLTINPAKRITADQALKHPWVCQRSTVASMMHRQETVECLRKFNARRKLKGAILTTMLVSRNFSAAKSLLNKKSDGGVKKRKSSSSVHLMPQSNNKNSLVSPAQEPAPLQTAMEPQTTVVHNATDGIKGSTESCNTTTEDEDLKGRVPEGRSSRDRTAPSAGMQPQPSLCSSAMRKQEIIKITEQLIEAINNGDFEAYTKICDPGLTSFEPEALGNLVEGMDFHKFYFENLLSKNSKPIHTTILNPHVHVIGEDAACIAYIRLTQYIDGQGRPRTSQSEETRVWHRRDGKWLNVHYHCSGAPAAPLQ
# Sequence of Serine/threonine-protein kinase 38-like (Homo sapiens) (Q9Y2H1 2-464 limits assumed): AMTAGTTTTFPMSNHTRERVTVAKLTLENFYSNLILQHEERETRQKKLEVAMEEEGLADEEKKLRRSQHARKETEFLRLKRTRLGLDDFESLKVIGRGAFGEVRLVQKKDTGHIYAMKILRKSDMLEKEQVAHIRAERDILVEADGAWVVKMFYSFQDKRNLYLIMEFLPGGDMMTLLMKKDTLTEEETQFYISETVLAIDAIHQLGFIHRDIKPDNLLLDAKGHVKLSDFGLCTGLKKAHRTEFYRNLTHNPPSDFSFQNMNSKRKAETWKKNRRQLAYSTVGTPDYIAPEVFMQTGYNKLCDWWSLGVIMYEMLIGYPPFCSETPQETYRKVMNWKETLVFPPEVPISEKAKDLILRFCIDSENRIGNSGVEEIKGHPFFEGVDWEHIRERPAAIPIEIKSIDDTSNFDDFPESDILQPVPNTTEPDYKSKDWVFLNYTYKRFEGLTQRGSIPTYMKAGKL
# Sequence of Cyclin-dependent kinase 5 (Q00535 whole entry, looked up, canonical isoform): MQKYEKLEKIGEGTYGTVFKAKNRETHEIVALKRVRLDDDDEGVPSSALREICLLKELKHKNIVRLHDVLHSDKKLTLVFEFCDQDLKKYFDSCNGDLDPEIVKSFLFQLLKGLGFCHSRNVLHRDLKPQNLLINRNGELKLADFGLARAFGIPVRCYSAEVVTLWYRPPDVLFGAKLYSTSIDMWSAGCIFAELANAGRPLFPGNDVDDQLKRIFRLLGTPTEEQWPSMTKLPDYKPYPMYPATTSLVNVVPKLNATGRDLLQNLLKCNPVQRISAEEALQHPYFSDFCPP
smiles,measurement,setting,value
Nc1cnc(N2CCc3cc(S(=O)(=O)Nc4c(F)cc(Cl)cc4F)cc(N4CCCC4=O)c32)nc1 [TP-020n],% of control,[1],100%
CCC(=O)N1CC[C@H](Nc2ncnc3c2CN(c2cnc(OC)c(C(F)(F)F)c2)CC3)C1 [LENIOLISIB],IC50,[2],> 30 µM
CCN(CC)CCCCNc1ncc2cc(-c3cc(OC)cc(OC)c3)c(NC(=O)NC(C)(C)C)nc2n1,% of control,[3],100%
CC[C@@H]1[C@H](F)C(=O)N[C@@H]1COc1nccc2cc(C(N)=O)c(OC)cc12 [ZIMLOVISERTIB],% of inhibition,[4]; at 0.01 µM,2.4%
same,% of inhibition,[4]; at 0.2 µM,-8.6%
same,% of inhibition,[4]; at 1 µM,-32.8%
same,% of inhibition,[4]; at 5 µM,-57.9%
COCC(=O)NC/C=C/c1ccc2ncnc(Nc3ccc(Oc4ccc(C)nc4)c(C)c3)c2c1 [CP-724714],% of control,[5],100%
same,% of control,[6],100%
CN(C)C/C=C/C(=O)Nc1ccc(C(=O)N2CCCC(Nc3ncc(Cl)c(-c4c[nH]c5ccccc45)n3)C2)cc1 (stereo not given),% of control,[7],90%
O[C@H]1CC[C@H](Nc2ncc3nc(Nc4c(F)cc(F)cc4F)n([C@H]4CCOC4)c3n2)CC1,% of control,[8],100%
Cc1cc([C@@H](C)Nc2ccccc2C(=O)O)c2nc(N3CCOCC3)cc(=O)n2c1 [AZD-6482],% of control,[9],100%
N#Cc1cccc(-c2c[nH]c3ncnc(N4CCOCC4)c23)c1,% of inhibition,[10],46%
same,% of inhibition,[11],22%
Cc1cc(F)c(C(=O)Nc2cccc(-c3nncn3C(C)C)n2)cc1-n1cnc(C2CC2)c1,% of control,[12],78%
